Experimental data: patent US9877981B2, “NAD biosynthesis and precursors for the treatment and prevention of cancer and proliferation” (President and Fellows of Harvard College, priority 2012, dated 2018)

Key:
TFAM promoter = TFAM promoter activity by luciferase assay in primary WT myoblasts; type: cell-based, mouse; settings: DMOG vs DMSO
Description: TFAM promoter, VHL promoter, HRE and c-Myc activity were determined using a luciferase-based system. Luciferase activity was measured using the Dual-Luciferase Reporter Assay System (Promega) with Renilla as the reference.
TFAM promoter activity was evaluated using a TFAM promotes-luc plasmid. A fragment of the mouse Tfam promoter (1.4 kb upstream of the coding sequence) was cloned into a pGL4.15 vector (Promega). Luciferase activity was measured using the Dual-Luciferase Reporter Assay System (Promega) with Renilla as the reference 48 h after transfection.

NAD+ = NAD+ levels in skeletal muscle of mice treated with NMN; type: in vivo, C57BL/6J mice; settings: young and old
Description: (§1) C57BL/6J mice of 3, 6, 22, 24, or 30 months of age were obtained from the National Institutes of Aging mouse aging colony. Mice were acclimated for at least one-week prior to sacrifice. 3, and 24-month-old mice were given interperitoneal (IP) injections of 500 mg NMN/kg body weight per day or the equivalent volume of PBS for 7 consecutive days at 5:00 pm and 7:00 am on day 8 and sacrificed 4 hr after last injection. All animal studies followed the guidelines of and were approved by the Harvard Institutional Animal Care and Use Committee
NAD^+ from C2C12 cells and skeletal muscle was quantified with a commercially available kit (BioVision) according to the manufacturer's instructions and as described before (Gomes et al., Biochim. Biophys. Acta. 1822:185-195 (2012)).
C57BL/6J mice of 6, 22, or 30 months of age were obtained from the National Institutes of Aging mouse aging colony. Additionally 22 months old caloric restricted mice were also obtained from the National Institutes of Aging mouse aging colony. EGLN1 KO, SIRT1 KO and SIRT1 OE mice were generated as previously described (Minamishima et al., 2008; Price et al., 2012). Mice were acclimated for at least one-week prior to sacrifice. […]
NAD^+ from skeletal muscle was quantified with a commercially available kit (BioVision) according to the manufacturer's instructions and as described before (Gomes et al., 2012). […]

lactate = assay: Lactate levels in skeletal muscle of treated mice; type: in vivo; settings: 6- and 22-month-old mice; NMN one week
Text: (§2) C57BL/6J mice of 6, 22, or 30 months of age were obtained from the National Institutes of Aging mouse aging colony. Additionally 22 months old caloric restricted mice were also obtained from the National Institutes of Aging mouse aging colony. EGLN1 KO, SIRT1 KO and SIRT1 OE mice were generated as previously described (Minamishima et al., 2008; Price et al., 2012). Mice were acclimated for at least one-week prior to sacrifice. 3, 6, 22 and 24-month-old mice were given interperitoneal (IP) injections of 500 mg NMN/kg body weight per day or the equivalent volume of PBS for 7 consecutive days at 5:00 pm and 7:00 am on day 8 and sacrificed 4 hr after last injection.
C57BL/6J mice of 3, 6, 22, or 24 months of age were obtained from the National Institutes of Aging mouse aging colony. Additionally 22 months old caloric restricted mice were also obtained from the National Institutes of Aging mouse aging colony. Mice were acclimated for at least one-week prior to sacrifice. 3, 6, 22 and 24-month-old mice were given interperitoneal (IP) injections of 500 mg NMN/kg body weight per day or the equivalent volume of PBS for 7 consecutive days at 5:00 pm and 7:00 am on day 8 and sacrificed 4 hr after last injection. […]
Lactate from skeletal muscle was quantified with a commercially available kit (BioVision) according to the manufacturer's instructions.

[1] = system: HIF-1α target genes (PGK-1, Glut1, PDK1 and Vegfa); assay: qPCR of HIF-1α target genes in gastrocnemius of treated mice; type: in vivo; settings: 3- and 24-month-old mice, NMN 500 mg/kg IP one week
Description: as §1
RNA from skeletal muscle tissue and C2C12 cells were extracted with RNeasy mini kit (Qiagen) according to the instructions and quantified using the NanoDrop 1000 spectrophotometer (Thermo Scientific). cDNA was synthesized with the iSCRIP cDNA synthesis kit (BioRad) using 600 ng of RNA. Quantitative RT-PCR reactions were performed using 1 μM of primers and LightCycler® 480 SYBR Green Master (Roche) on an LightCycler® 480 detection system (Roche). Calculations were performed by a comparative method (2-ΔCT) using 18S as an internal control. […]
RNA from skeletal muscle and aorta were extracted with RNeasy mini kit (Qiagen) according to the instructions and quantified using the NanoDrop 1000 spectrophotometer (Thermo Scientific). cDNA was synthesized with the iSCRIP cDNA synthesis kit (BioRad) using 600 ng of RNA. […]

[2] = system: AKT and IRS-1 phosphorylation; assay: Insulin signaling immunoblot (p-AKT, p-IRS-1) in muscle of treated mice; type: in vivo; settings: old mice treated with NMN; soleus
Text: as §2
(§3) Protein extracts from tissue or C2C12 cells were obtained by lysis in ice-cold lysis buffer (150 mM NaCl, 10 mM Tris HCl (pH 7.4), 1 mM EDTA, 1 mM EGTA, 1% Triton X-100, 0.5% NP-40) supplemented with a cocktail of protease and phosphatase inhibitors (Roche). Protein content was determined by the Bradford protein assay (Biorad), and 50 μg proteins were run on SDS-PAGE under reducing conditions. The separated proteins were then electrophoretically transferred to a polyvinylidene difluoride membrane (Perkin-Elmer). […] The immunostaining was detected using horseradish peroxidase-conjugated anti-rabbit or anti-mouse immunoglobulin for 1 h at room temperature.

primary myoblasts = assay: qPCR of mitochondrial-encoded genes in primary myoblasts infected with NMNAT1 or nontargeting shRNA; type: cell-based, mouse; settings: primary myoblasts with knockdown of NMNAT1
VHL = assay: Immunoblot for VHL in gastrocnemius of treated mice; type: in vivo; settings: 6- and 22-month-old mice, NMN one week
Text: as §2
C57BL/6J mice of 3, 6, 22, or 24 months of age were obtained from the National Institutes of Aging mouse aging colony. […]
as §3, with “tissue” for “tissue or C2C12 cells”, “conditions.” for “conditions. The separated proteins were then electrophoretically transferred to a polyvinylidene difluoride membrane (Perkin-Elmer).”

Atrogin-1 and MuRF1 = assay: Immunoblot for muscle wasting markers in gastrocnemius of treated mice; type: in vivo; settings: old (22-month) mice; NMN one week; skeletal muscle
Text: as §2, §3

| Structure (SMILES) | full length TFAM promoter activity (TFAM promoter) | TFAM promoter activity with c-Myc consensus sequence mutation (TFAM promoter; c-Myc binding site absent) | levels of cellular NAD+ (NAD+; 3- and 24-month-old C57BL/6J mice, NMN 500 mg/kg IP for one week, skeletal muscle) | levels of cellular NAD+ (NAD+; 6- and 22-month-old C57BL/6J mice, NMN for one week) [fold] | lactate levels in the skeletal muscle (lactate) | expression of HIF-1α target genes [1] | age-induced insulin resistance in the skeletal muscle [2] | phosphorylation of AKT and IRS-1 [2] | ability of NMN to induce expression of mitochondrial-encoded genes (primary myoblasts) | VHL protein (VHL) | muscle wasting markers Atrogin-1 and MuRF1 (Atrogin-1 and MuRF1) |
| --- | --- | --- | --- | --- | --- | --- | --- | --- | --- | --- | --- |
| COC(=O)CNC(=O)C(=O)OC [DMOG, dimethyloxaloylglycine] | reduces the full length TFAM promoter activity | does not have an additive effect | – | – | – | – | – | – | – | – | – |
| NC(=O)c1ccc[n+]([C@@H]2O[C@H](COP(=O)([O-])O)[C@@H](O)[C@H]2O)c1 [NMN, nicotinamide mononucleotide] | – | – | approximately 2 fold | 2 | suppressed the increase in lactate levels | suppressed the expression of HIF-1α target genes | reverse age-induced insulin resistance | increasing the phosphorylation | completely abolishes the ability of NMN to induce the expression of mitochondrial-encoded genes | reversed the age-induced decline in VHL | completely reversed these markers |
